Experimental data taken from US20130058930A1 (ANTARES PHARMA, INC., priority 2011, published 2013).
Like-named read-outs stand apart in the source and are kept apart here.

Key:
[1] = Three-period crossover relative bioavailability study of methotrexate injectable solutions (Vibex device SC vs needle and syringe SC and IM); format: in vivo, human; details: for AUC(0-inf) / Tmax / AUC(0-t) / Cmax / half-life: human, plasma, sc, subcutaneous with Vibex device
Procedure: This was a randomized, open-label, 3-way crossover study involving 36 subjects. During the screening period, 1 of 4 MTX dose groups (10 mg, 15 mg, 20 mg, or 25 mg) were selected by the investigator for each subject based on the subject's current MTX dose at the time of enrollment and disease status (controlled RA vs. uncontrolled RA). […] One of six treatment sequences was possible as determined by the randomization schedule.
A total of approximately 200 ml blood was obtained from each subject over the course of the study.
Immediately following collection of each sample, each tube was gently inverted and placed in ice. Within 30 minutes of sample collection, the tubes were centrifuged at about 2000×G for 15 minutes at approximately 4° C. in order to separate the cells from the plasma. No aids for separation were used. The plasma was transferred with clean pipettes and placed in two polypropylene storage tubes in equal volumes. The storage tubes were labeled with the following information: protocol number, subject number, period number, relative time of sample, and analyte. The label was taped with clear tape to assure adherence of the label. The storage tubes were placed in a freezer at […] or below until they analyzed.
Briefly, in an ice water bath, 100 μL of the human K2EDTA plasma sample was placed in a 2-ml centrifuge tube. 10 μL of working standard solution and 10 μL of internal standard were added to the tubes. Afterwards, […] of 30% formic acid in water was added to the tubes and 0.2 ml of cold precipitation solution (acetonitrile) was added, vortexed and centrifuged. The supernatant was transferred to a 96-well plate for LC/MS/MS analysis. A volume of approximately 5 μL of the sample was injected into an LC/MS/MS system. The LC/MS/MS analysis was carried out with a Sciex API-4000 mass spectrometer coupled with a Shimadzu LC system. […] Calibration curves and quality control samples were included in each run. The ranges of the assay for both analyses were from 1 ng/ml to 1000 ng/ml, and the limit of quantification for both analyses was 1 ng/ml.
Concentration values that were reported as below the limit of quantification (BLQ) were treated as 0 for computing mean concentrations and in the concentration-time graphs. […] Concentrations in plasma were used as reported; but measurable concentrations observed after obtaining a BLQ result were excluded from analysis.
The Linear Up Log Down method (equivalent to the Linear Up/Log Down option in WinNonlin® Professional) was used in the computation of AUCs. The linear trapezoidal method was employed for any area where the concentration data was increasing (or constant) and the logarithmic trapezoidal method for any area where the concentration data was decreasing. Interpolation of concentration values was conducted using the linear interpolation rule for any time point surrounded by points of increasing (or constant) concentrations and the logarithmic interpolation rule for any time point surrounded by points of decreasing concentrations.
Pharmacokinetic parameters were calculated from the individual concentrations of MTX using noncompartmental methods. […] Secondary PK parameters calculated for each treatment were the following: time of maximum concentration (t . . . ), half-life (tin), Lambda z, and percent of area under the curve extrapolated.
Comparisons among treatments were evaluated by a mixed model analysis of the log-transformed, dose-normalized values of Cmax, AUC(0-t), and AUC(0-inf) with sequence, treatment, and treatment period as fixed effects and subject nested within sequence as a random effect. Using these models, the least-squares (LS) mean for the above PK parameters of each treatment were determined. The differences in LS means among treatments and the 90% confidence intervals (CIs) for the differences in the log-scale LS means among treatment were also obtained.

[2] = cited from earlier work; for average mean serum concentration: pediatric patients with juvenile rheumatoid arthritis

**Q.** For CN(Cc1cnc2nc(N)nc(N)c2n1)c1ccc(C(=O)N[C@@H](CCC(=O)O)C(=O)O)cc1 [methotrexate, N-[4-[[(2,4-diamino-6-pteridinyl)methyl]methylamino]benzoyl]-L-glutamic acid], which AUC(0-inf) ([1]; 10 mg, 10 mg single dose) is on record?
**A.** ~1.16 µg·h/mL

**Q.** And the Tmax ([1]; 10 mg, 10 mg single dose)?
**A.** 1.33 h

**Q.** What about the AUC(0-t) ([1]; 10 mg, 10 mg single dose, read-out: AUC(0-24)) of the same compound?
**A.** ~1.15 µg·h/mL

**Q.** And the AUC(0-t) ([1]; 10 mg, 10 mg single dose, read-out: AUC(0-t))?
**A.** ~1.14 µg·h/mL

**Q.** And the Cmax ([1]; 10 mg, 10 mg single dose, subjects with rheumatoid arthritis)?
**A.** ~0.213 µg/mL

**Q.** What about the AUC(0-inf) ([1]; 15 mg, 15 mg single dose) of the same compound?
**A.** ~1.98 µg·h/mL

**Q.** What about the Cmax ([1]; 15 mg, 15 mg single dose) of the same compound?
**A.** ~0.356 µg/mL

**Q.** What about the Tmax ([1]; 15 mg, 15 mg single dose) of the same compound?
**A.** ~1.25 h

**Q.** What about the half-life ([1]; 15 mg, 15 mg single dose) of the same compound?
**A.** ~3.68 h

**Q.** What about the AUC(0-t) ([1]; 15 mg, 15 mg single dose, read-out: AUC(0-24)) of the same compound?
**A.** ~1.95 µg·h/mL

**Q.** And the AUC(0-t) ([1]; 15 mg, 15 mg single dose, read-out: AUC(0-t))?
**A.** ~1.95 µg·h/mL

**Q.** What about the AUC(0-inf) ([1]; 20 mg, 20 mg single dose) of the same compound?
**A.** ~2.22 µg·h/mL

**Q.** What about the Cmax ([1]; 20 mg, 20 mg single dose) of the same compound?
**A.** ~0.417 µg/mL

**Q.** What about the Tmax ([1]; 20 mg, 20 mg single dose) of the same compound?
**A.** ~1.17 h

**Q.** And the half-life ([1]; 20 mg, 20 mg single dose)?
**A.** ~3.58 h

**Q.** What about the AUC(0-t) ([1]; 20 mg, 20 mg single dose, read-out: AUC(0-24)) of the same compound?
**A.** ~2.19 µg·h/mL

**Q.** And the AUC(0-t) ([1]; 20 mg, 20 mg single dose, read-out: AUC(0-t))?
**A.** ~2.19 µg·h/mL

**Q.** What about the AUC(0-inf) ([1]; 25 mg, 25 mg single dose) of the same compound?
**A.** ~2.84 µg·h/mL

**Q.** And the Cmax ([1]; 25 mg, 25 mg single dose)?
**A.** ~0.491 µg/mL

**Q.** And the Tmax ([1]; 25 mg, 25 mg single dose)?
**A.** ~1.23 h

**Q.** And the half-life ([1]; 25 mg, 25 mg single dose)?
**A.** ~3.78 h

**Q.** And the AUC(0-t) ([1]; 25 mg, 25 mg single dose, read-out: AUC(0-24))?
**A.** ~2.8 µg·h/mL

**Q.** What about the AUC(0-t) ([1]; 25 mg, 25 mg single dose, read-out: AUC(0-t)) of the same compound?
**A.** ~2.8 µg·h/mL

**Q.** And the “dose proportionality of observed plasma levels” value ([1]; single-dose administration, 10 mg to 25 mg dose range)?
**A.** increase linearly in a dose-proportionate manner

**Q.** What about the “initial average distribution volume” value ([2]; after intravenous administration) of the same compound?
**A.** about 0.18 L/Kg

**Q.** And the “absorption from parenteral routes of injection” value ([2]; in vivo)?
**A.** completely absorbed

**Q.** And the “average mean serum concentration” value ([2]; at about 1 hour)?
**A.** about 0.59 μM

**Q.** What about the “average mean serum concentration” value ([2]; at about 2 hours) of the same compound?
**A.** about 0.44 μM

**Q.** And the “average mean serum concentration” value ([2]; at about 3 hours)?
**A.** about 0.29 μM
